Data published in publication PMC9134086, “Inhibition of Dipeptidyl Peptidase-4 by Flavonoids: Structure–Activity Relationship, Kinetics and Interaction Mechanism” (Frontiers in Nutrition, 2022).

These compounds were tested against T1, DPP-4 (human recombinant) (Homo sapiens, UniProt P27487) (assay: In vitro assay for DPP-4 inhibitory activity (fluorescence, Gly-Pro-AMC)). Details: DPP-4 inhibition, fluorescence method.
T1 construct: purchased Sigma Aldrich D3446
Type: biochemical
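Wherever % Inhibition at 200μM is given: fluorescence of released AMC (excitation 360 nm, emission 460 nm) followed kinetically over 30 min at 37 °C in Tris-HCl pH 8.0.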
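Wherever IC50 is given: fluorescence of released AMC (excitation 360 nm, emission 460 nm) followed kinetically over 30 min at 37 °C in Tris-HCl pH 8.0.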
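Wherever ΔG (Gibbs free-energy change) is given: intrinsic DPP-4 fluorescence emission scanned 290–500 nm, corrected for flavonoid background and inner-filter absorbance, compared without versus with flavonoid quencher.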

T1 sequence (P27487 whole entry): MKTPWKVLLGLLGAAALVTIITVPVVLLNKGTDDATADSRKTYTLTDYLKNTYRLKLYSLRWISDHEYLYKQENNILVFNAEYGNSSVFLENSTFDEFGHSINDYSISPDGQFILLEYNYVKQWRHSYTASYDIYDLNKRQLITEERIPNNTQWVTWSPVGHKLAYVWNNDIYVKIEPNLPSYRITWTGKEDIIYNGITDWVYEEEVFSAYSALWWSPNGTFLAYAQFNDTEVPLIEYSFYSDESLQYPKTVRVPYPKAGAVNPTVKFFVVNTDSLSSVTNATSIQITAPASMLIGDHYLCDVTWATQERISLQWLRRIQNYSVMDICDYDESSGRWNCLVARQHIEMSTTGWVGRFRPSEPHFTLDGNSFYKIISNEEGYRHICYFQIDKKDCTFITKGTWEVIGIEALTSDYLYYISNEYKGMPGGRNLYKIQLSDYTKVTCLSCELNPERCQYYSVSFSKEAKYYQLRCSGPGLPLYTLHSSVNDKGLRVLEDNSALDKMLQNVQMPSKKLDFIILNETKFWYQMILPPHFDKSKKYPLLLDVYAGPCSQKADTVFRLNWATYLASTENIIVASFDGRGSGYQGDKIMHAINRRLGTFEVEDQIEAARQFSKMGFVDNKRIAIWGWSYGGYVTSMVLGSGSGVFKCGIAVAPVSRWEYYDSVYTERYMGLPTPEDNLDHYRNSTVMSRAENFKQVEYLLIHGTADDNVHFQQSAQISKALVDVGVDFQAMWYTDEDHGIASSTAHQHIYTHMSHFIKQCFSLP

Compound	IC50 [µM]
O=c1c(O)c(-c2cc(O)c(O)c(O)c2)oc2cc(O)cc(O)c12 [E19, Myricetin]	< 200

Same assay, conditions: flavonoid 200 μM; mean ± SD, three independent experiments

Compound	% Inhibition at 200μM [%]
COc1ccc(CCC(=O)c2c(O)cc(O[C@@H]3O[C@H](CO)[C@@H](O)[C@H](O)[C@H]3O[C@@H]3O[C@@H](C)[C@H](O)[C@@H](O)[C@H]3O)cc2O)cc1O [G2, Neosperidin dihydrochalcone]	17.15 ± 0.23
Myricitrin [E20]	39.8 ± 0.78

Same assay, conditions: flavonoid 200 μM; mean ± SD, three independent experiments; read-out: % Inhibition at 200μM

inhibition at 200 µM [%]	Compound
26.1 ± 3.07	O=c1cc(-c2ccccc2)oc2cc(O)cc(O)c12 [A3, Chrysin]
22.2 ± 1.22	COc1ccc(-c2cc(=O)c3c(O)cc(O)cc3o2)cc1O [A4, Diosmetin]
16.4 ± 1.73	COc1ccc(-c2cc(=O)c3c(O)cc(O[C@@H]4O[C@H](CO[C@@H]5O[C@@H](C)[C@H](O)[C@@H](O)[C@H]5O)[C@@H](O)[C@H](O)[C@H]4O)cc3o2)cc1O [A5, Diosmin]
42.63 ± 0.33	O=c1cc(-c2ccc(O)c(O)c2)oc2cc(O)c([C@@H]3O[C@H](CO)[C@@H](O)[C@H](O)[C@H]3O)c(O)c12 [A6, Isoorientin]
42.4 ± 1.23	O=c1cc(-c2ccc(O)cc2)oc2cc(O)c([C@@H]3O[C@H](CO)[C@@H](O)[C@H](O)[C@H]3O)c(O)c12 [A7, Isovitexin]
47.5 ± 0.89	O=c1cc(-c2ccc(O)c(O)c2)oc2cc(O)cc(O)c12 [A8, Luteolin]
35.65 ± 0.11	O=C(O)C1OC(Oc2cc(O)c3c(=O)cc(-c4ccc(O)c(O)c4)oc3c2)C(O)C(O)C1O (centres unmarked) [A9, Luteolin 7-O-glucuronide]
45.6 ± 0.62	O=c1cc(-c2ccc(O)c(O)c2)oc2cc(O[C@@H]3O[C@H](CO)[C@@H](O)[C@H](O)[C@H]3O)cc(O)c12 [A10, Luteoloside]
14.2 ± 1.06	COc1ccc(-c2cc(=O)c3c(OC)c(OC)c(OC)c(OC)c3o2)cc1 [A13, Tangeretin]
45.9 ± 1.48	O=c1cc(-c2ccc(OC3OC(CO)C(O)C(O)C3O)cc2)oc2c(C3OC(CO)C(O)C(O)C3O)c(O)cc(O)c12 (centres unmarked) [A16, Vitexin 4'-O-glucoside]
14.3 ± 1.48	COc1ccc(-c2coc3cc(O)cc(O)c3c2=O)cc1 [B1, Biochanin A]
43 ± 2.41	COc1ccc(-c2coc3cc(O)ccc3c2=O)cc1O [B2, Calycosin]
19.2 ± 3.44	O=c1c(-c2ccc(O)cc2)coc2cc(O)ccc12 [B3, Daidzein]
17.6 ± 0.19	COc1ccc(-c2coc3cc(O)ccc3c2=O)cc1 [B4, Formononetin]
15.3 ± 0.21	O=c1c(-c2ccc(O)cc2)coc2cc(O)cc(O)c12 [B5, Genistein]
20.8 ± 1.92	COc1cc(O)c2c(=O)cc(-c3ccc(O)cc3)oc2c1 [B6, Genkwanin]
30.9 ± 1.22	O=C1c2c(O)cc(O)cc2O[C@H](c2ccc(O)cc2O)[C@H]1O [C1, Dihydromorin]
20.6 ± 0.36	O=C1c2c(O)cc(O)cc2O[C@H](c2cc(O)c(O)c(O)c2)[C@H]1O [C2, Dihydromyricetin]
< 10	COc1ccc([C@@H]2CC(=O)c3c(O)cc(O)cc3O2)cc1O [C3, Hesperetin]
17.1 ± 0.94	O=C1C[C@@H](c2ccc(O)cc2)Oc2cc(O)ccc21 [C5, Liquiritigenin]
< 10	Oc1cc(O)c2c(c1)OC(c1ccc(O)c(O)c1)C(O)C2 (centres unmarked) [D1, Catechin]
< 10	Oc1cc(O)c2c(c1)O[C@H](c1ccc(O)c(O)c1)[C@H](O)C2 [D2, Epicatechin]
< 10	O=C(O[C@@H]1Cc2c(O)cc(O)cc2O[C@@H]1c1cc(O)c(O)c(O)c1)c1cc(O)c(O)c(O)c1 [D3, Epigallocatechin gallate]

inhibition at 200 µM [%]	Compound
27.1 ± 0.42	O=c1c(O[C@@H]2O[C@@H](CO)[C@H](O)[C@H]2O)c(-c2ccc(O)c(O)c2)oc2cc(O)cc(O)c12 [E1, Avicularin]
38.26 ± 0.36	O=c1c(O)c(-c2ccccc2)oc2cc(O)cc(O)c12 [E2, Galangin]
36.9 ± 1.13	O=c1c(O[C@@H]2O[C@H](CO)[C@@H](O)[C@H](O)[C@H]2O)c(-c2ccc(O)c(O)c2)oc2cc(O)cc(O)c12 [E5, Isoquercitrin]
38.6 ± 1.41	COc1cc(-c2oc3cc(O)cc(O)c3c(=O)c2OC2OC(CO)C(O)C(O)C2O)ccc1O (centres unmarked) [E7, Isorhamnetin 3-O-glucoside]
40.6 ± 0.42	COc1cc(-c2oc3cc(O)cc(O)c3c(=O)c2OC2OC(CO)C(O)C(O)C2OC2OC(C)C(O)C(O)C2O)ccc1O (centres unmarked) [E8, Isorhamnetin 3-O-neohesperidin]
15.7 ± 0.58	COc1ccc(-c2oc3cc(O)cc(O)c3c(=O)c2O)cc1 [E9, Kaempferide]
19.3 ± 0.47	C[C@@H]1O[C@@H](Oc2cc(O)c3c(=O)c(O[C@@H]4O[C@@H](C)[C@H](O)[C@@H](O)[C@H]4O)c(-c4ccc(O)cc4)oc3c2)[C@H](O)[C@H](O)[C@H]1O [E10, Kaempferitrin]
32.23 ± 0.19	O=c1c(O)c(-c2ccc(O)cc2)oc2cc(O)cc(O)c12 [E11, Kaempferol]
46.3 ± 1.57	O=c1c(OC2OC(CO)C(O)C(O)C2O)c(-c2ccc(O)cc2)oc2cc(O)cc(O)c12 (centres unmarked) [E13, Kaempferol 3-O-galactoside]
36.83 ± 0.01	CC1OC(OCC2OC(Oc3c(-c4ccc(O)cc4)oc4cc(O)cc(O)c4c3=O)C(O)C(O)C2O)C(O)C(O)C1O (centres unmarked) [E14, Kaempferol 3-O-rutinoside]
43.2 ± 1.48	O=c1c(OC2OC(CO)C(O)C(O)C2OC2OC(CO)C(O)C(O)C2O)c(-c2ccc(O)cc2)oc2cc(O)cc(O)c12 (centres unmarked) [E15, Kaempferol 3-O-sophoroside]
37.2 ± 0.64	O=c1c(O)c(-c2ccc(OC3OC(CO)C(O)C(O)C3O)cc2)oc2cc(O)cc(O)c12 (centres unmarked) [E16, Kaempferol 4'-O-glucoside]
42.8 ± 0.91	O=c1c(O)c(-c2ccc(O)cc2O)oc2cc(O)cc(O)c12 [E18, Morin]
45.6 ± 0.78	COc1c(-c2ccc(O)c(O)c2)oc2cc(O)cc(O)c2c1=O [E22, 3-O-Methylquercetin]
33.9 ± 1.07	O=c1c(OC2OC(CO)C(O)C(O)C2O)c(-c2ccc(O)c(O)c2)oc2cc(OC3OC(COC4OC(CO)C(O)C(O)C4O)C(O)C(O)C3O)cc(O)c12 (centres unmarked) [E24, Quercetin 3-O-glu-7-O-gentiobioside]
48.96 ± 0.12	CC1OC(Oc2cc(O)c3c(=O)c(O)c(-c4ccc(O)c(O)c4)oc3c2)C(O)C(O)C1O (centres unmarked) [E25, Quercetin 7-O-rhamnoside]
22.2 ± 0.63	COc1cc(O)c2c(=O)c(O)c(-c3ccc(O)c(O)c3)oc2c1 [E27, Rhamnetin]
42.7 ± 1.28	C[C@@H]1O[C@@H](OC[C@H]2O[C@@H](Oc3c(-c4ccc(O)c(O)c4)oc4cc(O)cc(O)c4c3=O)[C@H](O)[C@@H](O)[C@@H]2O)[C@H](O)[C@H](O)[C@H]1O [E28, Rutin]
18.8 ± 0.4	Oc1cc(O)c2cc(O)c(-c3ccc(O)c(O)c3)[o+]c2c1 [F1, Cyanidin]
13.7 ± 2.07	COc1cc(-c2[o+]c3cc(O)cc(OC4OC(CO)C(O)C(O)C4O)c3cc2OC2OC(CO)C(O)C(O)C2O)cc(OC)c1O (centres unmarked) [F4, Malvin]
< 10	Oc1ccc(-c2[o+]c3cc(O)cc(O)c3cc2O)cc1 [F5, Pelargonidin]
< 10	O=C(CCc1ccc(O)cc1)c1c(O)cc(O)cc1O[C@@H]1O[C@H](CO)[C@@H](O)[C@H](O)[C@H]1O [G4, Phlorizin]

Compound	inhibition at 200 µM [%]
C[C@@H]1O[C@@H](Oc2c(-c3ccc(O)c(O)c3)oc3cc(O)cc(O)c3c2=O)[C@H](O)[C@H](O)[C@H]1O [E26, Quercitrin]	47.65 ± 0.36

Same assay, conditions: read-out: % Inhibition at 200μM

Compound	inhibition at 200 µM [%]
C[C@@H]1O[C@@H](OC[C@H]2O[C@@H](Oc3cc(O)c4c(c3)O[C@H](c3ccc(O)cc3)CC4=O)[C@H](O)[C@@H](O)[C@@H]2O)[C@H](O)[C@H](O)[C@H]1O [A11, Narirutin]	13.97 ± 0.13
O=c1cc(-c2ccc(O)c(O)c2)oc2c([C@@H]3O[C@H](CO)[C@@H](O)[C@H](O)[C@H]3O)c(O)cc(O)c12 [A12, Orientin]	38.6 ± 2.1
O=c1cc(-c2ccc(O)cc2)oc2c([C@@H]3O[C@H](CO)[C@@H](O)[C@H](O)[C@H]3O)c(O)cc(O)c12 [A14, Vitexin]	27 ± 1.35
COc1ccc(C2CC(=O)c3c(O)cc(OC4OC(COC5OC(C)C(O)C(O)C5O)C(O)C(O)C4O)cc3O2)cc1O (centres unmarked) [C4, Hesperidin]	< 10
O=c1c(O)c(-c2ccc(O)cc2)oc2c(O)c(O)cc(O)c12 [E3, Herbacetin]	25.7 ± 1.82
COc1cc(-c2oc3cc(O)cc(O)c3c(=O)c2O)ccc1O [E6, Isorhamnetin]	29.4 ± 1.52
O=c1c(O)c(-c2ccc(O)cc2)oc2cc(OC3OC(CO)C(O)C(O)C3O)cc(O)c12 (centres unmarked) [E17, Kaempferol 7-O-glucoside]	48.8 ± 1.07
COc1cc(-c2[o+]c3cc(O)cc(O)c3cc2OC2OC(CO)C(O)C(O)C2O)cc(OC)c1O (centres unmarked) [F3, Malvidin 3-O-glucoside]	15 ± 2.42
O=C(CCc1ccc(O)cc1)c1c(O)cc(O)cc1O [G3, Phloretin]	17.8 ± 1.21

These compounds were tested against T1, DPP-4 (human recombinant) (assay: Fluorescence quenching experiments (Stern-Volmer, binding constant, thermodynamic parameters)). Details: 310 K.

Compound	ΔG (Gibbs free-energy change) [kJ/mol]
O=c1c(O)c(-c2cc(O)c(O)c(O)c2)oc2cc(O)cc(O)c12 [E19, Myricetin]	-24.88
